Paper PMC8749431 (mBio, 2022)
Where two headings read alike, the source gives them in different places.

Experiments:
VSV-Gpp = format: cell-based, vesicular stomatitis virus
in vitro [1] = settings: African green monkey
in vitro [2] = settings: human
[3] = tested on: SARS-CoV-2 S protein-mediated cell-cell fusion; format: cell-based; settings: 30 μM; 48 h
[4] = tested on: SARS-CoV-2 S protein-mediated cell-cell fusion; format: cell-based; settings: 30, 10, 3, 1 μM; 48 h
in vitro [5] = settings: human; remark: listed apart in the source
[6] = tested on: SARS2-Spp binding to Huh7 cells; format: cell-based, SARS-CoV-2
icSARS-CoV-2-mNeonGreen = format: cell-based, SARS-CoV-2
SARS-CoV-2-NLuc = test: microbe, parasite or virus in culture; format: cell-based; settings: Severe acute respiratory syndrome coronavirus 2, Vero C1008
[7] = target: recombinant SARS-CoV-2 S1-S2 protein (Severe acute respiratory syndrome coronavirus 2, UniProt P0DTC2); format: binding
[8] = tested on: wild-type SARS-CoV-2 (2019-nCoV/USA-WA1/2020 strain); format: cell-based
SARS2-Spp = format: cell-based, SARS-CoV-2

| Compound | inhibition of VSV-Gpp entry (VSV-Gpp) | CC50 (in vitro [1]) [µM] | CC50 (in vitro [2]) [µM] | inhibition of fusion (GFP-RFP colocalization) [3] | inhibition of donor-recipient fusion events (SmBit-LgBit) [4] | CC50 (in vitro [5]) [µM] | effect on viral binding to cells [6] | suppression of viral RNA levels [8] | inhibition when present at early entry time points (SARS2-Spp) | inhibition when present during binding (SARS2-Spp) | further results |
| --- | --- | --- | --- | --- | --- | --- | --- | --- | --- | --- | --- |
| CN1CCN([C@@H](c2ccccc2)c2ccc(Cl)cc2)CC1 [(S)-CCZ, (S)-chlorcyclizine] | no inhibition | 36.2 | > 100 | showed inhibition | inhibited | > 30 |  |  |  |  | CC50 (Huh7 cells; human): 41.7 µM |
| CCN(CC)CCCC(C)Nc1ccnc2cc(Cl)ccc12 (centres unmarked) [Chloroquine, chloroquine] | strong inhibition | > 100 | > 100 |  |  | > 30 |  |  |  |  | CC50 (Huh7 cells; human): 37.5 µM |
| CN(C)C(=O)COC(=O)Cc1ccc(OC(=O)c2ccc(NC(=N)N)cc2)cc1 [Camostat, camostat] |  | > 100 | > 100 | did not decrease | did not suppress | > 100 |  |  |  |  |  |
| Heparan sulfate |  |  |  |  |  |  | significantly inhibited |  |  |  |  |
| CCN1CCN(C(c2ccc(Cl)cc2)c2ccc(Cl)cc2)CC1 [Dichlorcyclizine, dichlorcyclizine] | no inhibition | > 100 | > 100 | strong inhibition | potent inhibition |  | little or no effect | up to 2 log | potent inhibition | minimal inhibition | EC50 (icSARS-CoV-2-mNeonGreen): single-digit micromolar range; EC50 (SARS-CoV-2-NLuc): 4.99 µM; competition of probe cross-linking to the spike protein ([7]; 30-fold excess over CCZ-DB): could outcompete |
| CCOC(=O)[C@H]1O[C@@H]1C(=O)N[C@@H](CC(C)C)C(=O)NCCC(C)C [E-64d] |  |  |  | did not decrease | did not suppress |  | little or no effect |  | displayed inhibition | displayed inhibition | CC50 (Huh7 cells): > 100 µM; CC50 (MA104 cells): > 100 µM; CC50 (293ACE2 cells): > 100 µM; inhibition when present at middle entry time point (SARS2-Spp): displayed inhibition |
| CCC(CC)COC(=O)[C@H](C)N[P@](=O)(OC[C@H]1O[C@@](C#N)(c2ccc3c(N)ncnn23)[C@H](O)[C@@H]1O)Oc1ccccc1 [remdesivir] |  |  |  |  |  |  |  | up to 3 log |  |  |  |
| Cc1cc(-c2nc(CN3CCC(C(=O)NCCCN4C[C@H](C)C[C@H](C)C4)CC3)co2)ccc1F [Fluoxazolevir, fluoxazolevir] | minimal | > 100 | > 100 | showed inhibition | inhibited | 32.7 | little or no effect | up to 2 log | potent inhibition | minimal inhibition | EC50 (icSARS-CoV-2-mNeonGreen): single-digit micromolar range; EC50 (SARS-CoV-2-NLuc): 1.96 µM |
| O=C(CCCCC1SCC2NC(=O)NC21)NCCOCCOCCN1CCN(C(c2ccc(Cl)cc2)c2ccc(C3(C(F)(F)F)N=N3)cc2)CC1 (centres unmarked) [CCZ-DB] |  |  |  |  |  |  |  |  |  |  | binding to recombinant S1-S2 protein by cross-linking ([7]; 10 µM probe, UV irradiation, Neutravidin pull-down, anti-S2 blot): direct binding |
